In patent US20070238680A1, “Substance and process for preventing a genetic defect from being passed onto offspring” (priority 2006, published 2007):

Columns and labels:
N/H sperm = test: Sperm motility after about 24 hours in potassium-fortified sperm extender, computer-assisted semen analyzer; assay type: cell-based, horse
Description: (§1) Three curves are plotted—one for motility of N/N sperm, one for N/H sperm and one for H/H sperm. […] In the tests, the sperm was kept in the particular sperm extender formula for about 24 hours. It was then diluted with standard sperm extender (with the low potassium concentration) at about an 8-to-1 ratio in a bullet tube, and its motility was measured using a computer-assisted semen analyzer. Note that the bold lines on the graph are linear extrapolations between the actual data points, which are shown in squares, triangles and diamonds, and are not accurate representations of the actual values between those data points.

N/N sperm = test: as above; assay type: cell-based, horse; conditions: for motility of the N/N sperm sample: about 24 hours, then re-extended about 8-to-1
Description: as §1

H/H sperm = test: as above; assay type: cell-based, horse
Description: as §1
As shown in the bottom-most curve in FIG. 6, as the potassium concentration increases, the motility of the H/H sperm sample drops to zero somewhere prior to 50 times the standard potassium concentration. Because all sperm in the H/H sample contain the defective sperm, we conclude that all defective sperm are immobilized at this concentration. More importantly, the sperm are permanently immobilized, as the test measured motility after the sperm sample was re-extended, restoring metabolic potassium levels.

[1] = test system: genetically defected sperm versus healthy sperm; conditions: potassium concentration in the extra-cellular fluid in the same range for all salts
[2] = 70 times the normal potassium concentration, extrapolated from the curve
[3] = 100 times the normal potassium concentration

Compound	motility percentage of N/H sperm cell sample (N/H sperm; 50 times the normal potassium concentration, about 24 hours, then re-extended about 8-to-1)	motility rate for N/H sperm cells (N/H sperm; [2])	motility of the N/N sperm sample (N/N sperm; 50 times standard potassium concentration)	motility rate for N/N sperm cells (N/N sperm; [2])	motility of the N/N sperm sample (N/N sperm; [3])	impairment of defective cells (H/H sperm; [3])	microscopic examination of the morphology of the sperm cells (H/H sperm; H/H sperm after high potassium exposure)	motility of the H/H sperm sample (H/H sperm; somewhere prior to 50 times the standard potassium concentration, about 24 hours, then re-extended about 8-to-1)	suitable triggering event that impaired genetically defected sperm without also impairing healthy sperm [1]
[Cl-].[K+] [potassium chloride]	about 53%	~38%	about 85%	~60%	29%	completely and permanently impaired	tails were permanently curled around the cell body	zero	yielded a suitable triggering event
potassium phosphate [reference compound]									failed to produce such a suitable outcome
